According to patent publication US20220401585A1, “A UROKINASE PLASMINOGEN ACTIVATOR RECEPTOR-TARGETING PEPTIDE” (RIGSHOSPITALET, priority 2019, published 2022):
Primed or numbered codes have the meaning given here. [ ]: non-standard residue; d: D form. Cha = N[C@@H](CC1CCCCC1)C(=O)O; IRDye800CW′ = not defined here; AEEA = NCCOCCOCC(=O)O

Assays:
[1] = target: T1, uPAR (Homo sapiens, UniProt Q03405); experiment: SPR inhibition of uPAR wt binding to immobilized pro-uPA; settings: inhibition of uPAR binding to immobilized pro-uPA S356A, 20° C.
Procedure: Covalent immobilization of purified human prouPA^S356A—was accomplished by injecting 12.5 μg/ml protein dissolved in 10 mM sodium acetate (pH 5.0) over a CM5 chip that had been pre-activated with NHS/EDC (N-ethyl-N′[3-[…])propyl]-carbodiimide), aiming at a surface density of >5000 resonance units (RU) corresponding to 100 fmols/mm^2. After coupling the sensorchip was deactivated with 1 M ethanolamine. Binding of purified human uPAR as analyte was measured from 4 nM to 0.25 nM at 20° C. using 10 mM HEPES, 150 mM NaCl, 3 mM EDTA (pH 7.4) containing 0.05% (v/v) surfactant P20 as running buffer at a flow rate of 50 μl/min. […]
Surface plasmon resonance (SPR) was applied to determine the IC50-value of IRDye800-AE344 on the uPAR·uPA interaction in solution using a Biacore 3000 instrument essentially as described. […] A standard curve was measured in parallel (2-fold dilution of uPAR covering 0.06 nM to 2 nM) including one repeated concentration point at the end to validate the biological integrity of the sensor chip. […] The parent nonamer peptide antagonist AE105 (Asp-Cha-Phe-D-Ser-D-Arg-Tyr-Leu-Trp-Ser-OH) was analyzed in parallel as positive control and the closed uPAR^H47C-N259C was used as negative control as its uPA binding cavity cannot accommodate AE105.
Target sequence in this assay (Q03405 23-305 limits assumed): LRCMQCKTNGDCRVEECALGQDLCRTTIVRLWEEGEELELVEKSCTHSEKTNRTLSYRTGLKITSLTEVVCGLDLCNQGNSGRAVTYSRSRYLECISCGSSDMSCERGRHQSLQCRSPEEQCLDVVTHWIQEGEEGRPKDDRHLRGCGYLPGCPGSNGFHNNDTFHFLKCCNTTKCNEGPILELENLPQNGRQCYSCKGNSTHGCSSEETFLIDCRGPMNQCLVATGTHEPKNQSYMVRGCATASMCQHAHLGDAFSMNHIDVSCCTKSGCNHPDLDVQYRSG

[2] = Photostability under continuous laser exposure; assay type: physicochemical
Procedure: The photostability was evaluated by a factor 2 dilution series with four samples from 0.23-1.8 nM IRDye800-AE344 in 100 μL phosphate buffered saline (PBS) placed in a black 96-well plate. The well was placed in a black box with the Fluobeam mounted in the top at a distance of 23 cm from the well plate. Image acquisition was performed at 0 min, 10 min, 15 min, 20 min, 0.5 h, 1 h, 2 h, 3 h, 6 h, 10 h, 15 h, 24 h. Each dilution sample was normalized to time point 0 and the data from all four samples were pooled.

[3] = target: T1, uPAR; experiment: In vivo binding specificity (competitive blocking, scrambled probe); parameters: endogenous in cells; species or system mice; settings: 3 nmol, 1 h; for signal intensity compared to the active probe: orthotopic GBM
Procedure: The target specificity to uPAR was evaluated by two different methods: competitive blocking with the uPAR targeting peptide AE120 ((DChaFsrYLWSG)2-βAK) and IRDye800 conjugated to a scrambled peptide, AE354 (IRDye800CW-Glu-Glu-NH—CH2—CH2—O—CH2—CH2—O—CH2—CO—NH—CH2—CH2—O—CH2—CH2—O—CH2—CO-Asp-Cha-Glu-(D)Ser-(D)Arg-Tyr-Leu-Glu-Ser-OH) with similar peptide length as the active peptide. The competitive blocking dose of 1.4-2.8 mg AE120 was injected intraperitoneally 15-30 min prior to intravenous injection of 3 nmol IRDye800CW-AE344 and imaged at 1 h (n=5). The scrambled peptide was administered at 3 nmol and the animals were imaged after 1 h (n=4).
(§1) Images were analyzed and processed in ImageJ 1.52a, NIH, USA. Signal measurements were performed on the raw images generated by the Fluoptics system. Tumor signal was measured as a mean fluorescence intensity of the whole tumor and background signal was measured as the mean of a representative area with no tumor on the contralateral hemisphere. Presented pictures are contrast enhanced in ImageJ with the Contrast Enhancement (Saturated pixels: 0.3%).
Target sequence in this assay (Q03405 23-305): as the sequence (Q03405 23-305 limits assumed) above

[4] = Acute toxicity, liver and kidney histology; parameters: species or system mice; settings: mouse, in vivo
Source text: Liver and kidneys: Tissue was formalin fixed and paraffin embedded. Sections of 2-4 um thick were cut and a routine staining panel applied including: H&E, modified sirius, PAS and Masson trichome for both and additional PAS with silver for kidneys and PAS with diastase, iron, reticulin artisan and oxidised orcein for the livers. Livers were immunohistochemically stained, immunohistochemical evaluation on 3 μm thick sections was done using the CK7 antibody from Dako/Agilent, GA619 (clone OV-TL12/30) following the manufacturer's instructions. The staining took place on the Omnis from Agilent utilizing the EnVision Flex+ detection kit (GV800). The primary antibody was diluted using Antibody Diluent (Dako DM830) and were incubated for 20 minutes. The sections were counterstained with hematoxylin.

[5] = test system: orthotopic GBM (U-87 MG-luc2 xenograft); experiment: NIR fluorescence imaging of orthotopic GBM (dynamic imaging, TBR and MFI); assay type: in vivo, mice
Procedure: All experimental procedures in animals were carried out in accordance with the approval by The Animal Experiments Inspectorate, Denmark. 7-10-week-old female nude mice (strain: Rj:NMRI-Foxn1nu/nu, JANVIER LABS, France) were orthotopically xenografted with U-87 MG-luc2 cells. Prior to any surgical procedure, the animals were anesthetized with Hypnorm (0.315 mg/ml fentanyl, 10 mg/ml fluanisone)+Midazolam (5 mg/ml)+sterile water in the ratio 1:1:2 by subcutaneous injection of 0.01 ml/g body weight of the solution.
The orthotopic GBM tumor model was established by inoculation of 500.000 cells in 10 μL ice cold PBS in the right hemisphere (1.5 mm lateral and 0.5 mm posterior to the bregma at 2 mm depth) using a stereotaxic frame (KOPF INSTRUMENTS, Tujunga, Calif., USA) with the automated microinjection pump UMP3 (WPI, Sarasota, Fla., USA). The cells were injected over 5 min with the syringe kept in place for further 3 min before retraction. Tumor growth was subsequently monitored on MRI with the BioSpec 7T (Bruker, Billerica, Mass., USA) with axial and coronal T2-weighted sequences. When the tumor size reached 2-17 mm^3, the animals were included in the fluorescence imaging protocol.
All image acquisition was performed with the Fluobeam system with (Fluosoft version: 2.2.1) (Fluoptics, Grenoble, France). To characterize the in vivo biodistribution and tumor imaging properties, IRDye800-AE344 was administered through tail vein injection into all the GBM bearing mice (n=35) at four different doses: 1 nmol, 3 nmol, 6 nmol, and 12 nmol. Two mice were sacrificed for each time point and the brain was removed and cross sectioned through the tumor for imaging. […] Accordingly, image acquisition was performed at following time points after injection:
1 nmol: 0.5 h, 1 h, and 2 h
3 nmol: 1 h, 2 h, 3 h, and 5 h
6 nmol: 1 h, 3 h, 6 h, and 12 h
as §1
Pathological assessment was used to evaluate the colocalization of the fluorescence signal and cancer cells (sens+spec). The cross sectioned brain specimens from the fluorescence imaging were either paraffin embedded for H&E and IHC staining, or cryostat sectioned for fluorescence microscopy. […]
Cryostat sectioning was performed by fixation of the specimen in Tissue-Tek O.C.T. on dry ice. The fixed tissue was sliced axially and mounted on slides for immediate fluorescence imaging.

[6] = test system: orthotopic GBM; experiment: Fluorescence-guided resection; assay type: in vivo, mouse; settings: 6 nmol at 3 h, EleVision IR system
Procedure: Preoperatively, the tumor was visible on WL and NIR images (FIG. 15 upper panel). The surgeon performed the resection only assisted by WL until the surgeon considered all tumor tissues was removed. […] A video of fluorescence-guided surgery is also available in the online supplementary materials.
As should be understood from above, in FIG. 15 there is shown fluorescence-guided surgery (6 nmol IRDye800CW-AE344 at 3 h) performed with the EleVision™ IR system. Upper panel: Images were acquired prior to surgery. Middle panel: Pictures were acquired following surgery in white light and clearly visualizes remaining tumor tissue. The signal is more intense compared to upper panel and is due to the fact that the remaining tumor is now more exposed.

EE-O2Oc-O2Oc-DChaFsrYLWS-NH2 [AE347]
IC50 [1]: 5.7 ± 0.5 nM

CC(C)C[C@H](NC(=O)[C@H](Cc1ccc(O)cc1)NC(=O)[C@@H](CCCNC(=N)N)NC(=O)[C@@H](CO)NC(=O)[C@H](Cc1ccccc1)NC(=O)[C@H](CC1CCCCC1)NC(=O)[C@H](CC(=O)O)NC(=O)COCCOCCNC(=O)COCCOCCNC(=O)[C@H](CCC(=O)O)NC(=O)[C@H](CCC(=O)O)NC(=O)CCCCC[N+]1=C(/C=C/C2=C(Oc3ccc(S(=O)(=O)O)cc3)C(=C/C=C3/N(CCCCS(=O)(=O)[O-])c4ccc(S(=O)(=O)O)cc4C3(C)C)/CCC2)C(C)(C)c2cc(S(=O)(=O)O)ccc21)C(=O)N[C@@H](Cc1c[nH]c2ccccc12)C(=O)N[C@@H](CO)C(=O)O [IRDye800CW-AE344, IRDye800CW-Glu-Glu-O2Oc-O2Oc-Asp-Cha-Phe-D-Ser-D-Arg-Tyr-Leu-Trp-Ser-OH]
preserved fluorescence intensity ([2]; after continuous laser exposure for 1 h): 84% | preserved fluorescence intensity ([2]; after continuous laser exposure for 2 h): 62% | normalized TBR (ref: active probe) ([3]; blocked with AE120): 0.70 | tumor-to-background ratio (TBR) ([3]; blocked with AE120): 4.6 | normalized TBR (ref: active probe) ([3]; probe alone): 1.00 | tumor-to-background ratio (TBR) ([3]; probe alone): 6.6 | signal intensity compared to the active probe ([3]; competitive blocking with AE120): lower signal intensity | pathological assessment of the kidneys and the liver [4]: no pathological findings | background MFI ([5]; 6 nmol, 1 h): 24 a.u. | background MFI ([5]; 6 nmol, 3 h): 11 a.u. | decrease in background MFI ([5]; 6 nmol, from 1 h to 3 h): 54% | visualization of orthotopic GBM through intact brain on NIR imaging ([5]; in vivo cancer imaging): clearly visualized | outcome of fluorescence-guided surgery [6]: complete tumor resection

IRDye800CW-Glu-Glu-NH—CH2—CH2—O—CH2—CH2—O—CH2—CO—NH—CH2—CH2—O—CH2—CH2—O—CH2—CO-Asp-Cha-Glu-(D)Ser-(D)Arg-Tyr-Leu-Glu-Ser-OH ({IRDye800CW′}-EE[AEEA][AEEA]D[Cha]E[dS][dR]YLES-OH) [IRDye800CW-AE354, reference compound]
normalized TBR values (FIG. 16C) ([3]; probe alone): 3.4 | signal intensity compared to the active probe ([3]; probe alone): lower signal intensity
